Laboratory results from US20150094354A1, “METHOD FOR TREATING CELL PROLIFERATIVE DISORDER BY INHIBITING C1GALT1 EXPRESSION” (National Taiwan University, priority 2013, published 2015).

Tests used:
C1GALT1 = experiment: Knockdown of C1GALT1 expression confirmed by Western blotting / Q-PCR; type: cell-based, human; conditions: siRNA
Text: According to an embodiment of the present invention, in the experiment in vitro, two siRNA oligonucleotides against C1GALT1, 5′-[…] GG-3′ (SEQ ID NO: 1) and 5′-[…]-3′ (SEQ ID NO: 2), used as the C1GALT1 inhibition substance and a negative control siRNA of medium GC are synthesized by Invitrogen company.
According to another embodiment of the present invention, in the experiment in vivo, the pLKO/C1GALT1-shRNA plasmid containing the sequence, 5′-CCCAGCCTAATG TTCTTCATA-3′(SEQ ID NO: 13), against C1GALT1 is used as the C1GALT1 inhibition substance. The pLKO/C1GALT1-shRNA plasmid and non-targeting pLKO plasmids (as a negative control) are purchased from National RNAi Core Facility (Academia Sinica, Taipei, Taiwan). The short hairpin RNA (shRNA, 20 nM) plasmids are transfected with Lipofectamine® 2000 and selected with 500 ng/mL of puromycin for 10 days. […] Subsequently, 7×10^6 of hepatocellular carcinoma cells containing the pLKO/C1GALT1-shRNA plasmid and the non-targeting pLKO plasmid are subcutaneously injected into severe combined immunodeficient (SCID) mice (n=4 for each group). Tumor volumes are monitored for […]. Excised tumors are weighed and lysed for Western blotting and immunohistochemistry.
Equal amounts of protein samples are mixed with 5× sample buffer and boiled for 5 minutes, separated on SDS-polyacrylamide gels, and then transferred to PVDF membrane. The membranes are blocked in 5% BSA for 1 hour at room temperature, and incubated with primary antibodies overnight at 4° C. Anti-phosphotyrosine (4G10) antibody (Millipore, Billerica, Mass.), antibodies against C1GALT1, GAPDH, IGF-IR, MET pY 1234/5, IGF-IR pY1135/1136, p-AKT, p-ERK1/2, and ERK1/2 antibody (BD Pharmingen, San Jose, Calif.) are used. The blots are then incubated with secondary antibody conjugated with horseradish peroxidase and immunoreacted bands are detected by ECL reagents and exposed on x-ray film.
Total RNA is isolated using TRIzol reagent (Invitrogen) according to the manufacturer's protocol. Two micrograms of total RNA is used in reverse transcription reaction using the Superscript III First-Strand cDNA Synthesis Kit (Invitrogen). The cDNA is subjected to quantitative real-time RT-PCR (Q-PCR). Quantitative PCR System Mx3000P (Stratagene, La Jolla, Calif.) is used for quantitative real-time RT-PCR. Reactions are performed in a 20 μl volume with 2 μl cDNA, 400 nM of sense and anti-sense primers, and 10 μl Brilliant®SYBR®Green Q-PCR Master Mix (Stratagene). Primer sets are designed as the following: Primers for C1GALT1 are 5′-[…]-3′ (SEQ ID NO: 5) and 5′-[…]-3′(SEQ ID NO: 6). Primers for GAPDH are 5 ‘-[…]-3’ (SEQ ID NO: 8) and 5′-[…]-3′ (SEQ ID NO: 7). The relative quantity of gene expression normalized to GAPDH is analyzed using MxPro Software (Stratagene). […]

[1] = test system: O-glycans on glycoproteins; experiment: Western blotting with biotinylated VVA of glycoproteins in hepatocellular carcinoma cells; type: cell-based, human
Protocol: Vicia villosa agglutinin (VVA)- and peanut agglutinin (PNA) lectin-conjugated agarose beads, fluorescein isothiocyanate (FITC)-, and biotinylated VVA were purchased from Vector Laboratories. Recombinant EGF, HGF, IGF-I, and protein deglycosylation kits were purchased from Sigma. Protein deglycosylation is carried out using an Enzymatic Protein Deglycosylation Kit (Sigma). Briefly, cell lysates are treated with neuraminidase or PNGase F at 37° C. for 1 hour. For lectin blotting, […] of cell lysate is separated by an 8% SDS-PAGE, transferred to polyvinylidene difluoride membrane (Millipore), and blotted with biotinylated VVA (1:10,000). For lectin pull-down assay, cell lysates (0.3 mg) are incubated with or without deglycosylation enzymes and then applied to VVA- or PNA-conjugated agarose beads at 4° C. for 16 hours. The pulled down proteins are analyzed by Western blotting.
HA22T and PLC5 cells express high levels of C1GALT1, while Sk-Hep1 and HCC36 cells express low levels of C1GALT1, as shown in FIG. 6B. […] Compared with pcDNA3.1 empty plasmid (mock), overexpression of C1GALT1 in Sk-Hep1 and HCC36 cells transfected with C1GALT1/pcDNA3.1 plasmid (C1GALT1) is shown in FIG. 7B Immunofluorescence microscopy further confirmed the knockdown and overexpression of C1GALT1 in hepatocellular carcinoma cells and its subcellular localization in the Golgi apparatus (not shown). […] Proteins with evident changes in VVA binding are indicated by arrows. p140 changes in all tested cell lines are indicated by red arrows.

C1GALT1 si-1: siRNA oligonucleotide against C1GALT1, presumably SEQ ID NO: 1, UUAGUAUACGUUCAGGUAAGGUAGG (chemistry not given here)
C1GALT1 expression (C1GALT1; HA22T cells): knockdown of C1GALT1
C1GALT1 expression (C1GALT1; PLC5 cells): knockdown of C1GALT1
binding of VVA to glycoproteins ([1]; HA22T cells): enhanced
binding of VVA to glycoproteins ([1]; PLC5 cells): enhanced

C1GALT1 si-2: siRNA oligonucleotide against C1GALT1, presumably SEQ ID NO: 2, UUAUGUUGGCUAGAAUCUGCAUUGA (chemistry not given here)
C1GALT1 expression (C1GALT1; HA22T cells): knockdown of C1GALT1
C1GALT1 expression (C1GALT1; PLC5 cells): knockdown of C1GALT1
binding of VVA to glycoproteins ([1]; HA22T cells): enhanced
binding of VVA to glycoproteins ([1]; PLC5 cells): enhanced
